In patent US11083735B2, “Methods for treating sleep disorders, sleep disturbances, and related symptoms using aminosterol compositions” (Enterin, Inc., priority 2017, dated 2021):

How the values were obtained:
[1] = system: patients with PD and constipation; assay: Phase 2 trial Stage 2 (daily dosing): bowel function, stool related indices; assay type: in vivo, human; settings: for response rate: Stage 2 daily dosing
Description: (2) Rome-IV Criteria for Constipation (7 criteria, with constipation diagnosis requiring two or more of the following: (i) straining during at least 25% of defecations, (ii) lumpy or hard stools in at least 25% of defecations, (iii) sensation of incomplete evacuation for at least 25% of defecations, (iv) sensation of anorectal obstruction/blockage for at least 25% of defecations; (v) manual maneuvers to facilitate at least 25% of defecations; (vi) fewer than 3 defecations per week; and (vii) loose stools are rarely present without the use of laxatives;
(3) Constipation—Ease of Evacuation Scale (from 1-7, with 7=incontinent, 4=normal, and 1=manual disimpaction);
(4) Bristol Stool Chart, which is a patient-friendly means of categorizing stool characteristics (assessment of stool consistency is a validated surrogate of intestinal motility) and Stool Diary;
(14) Patient Assessment of Constipation Symptoms (PAC-SYM);
(15) Patient Assessment of Constipation Quality of Life (PAC-QOL);
In Stage 2, 34 patients were evaluated.
The primary efficacy outcome variable was whether or not a subject was a “success” or “failure”. This is an endpoint based on subject diary entries for the “fixed dose” period prior to the endpoint assessment defined as average complete stool frequency increase by 1 or more over baseline, or 3 or more complete spontaneous stools/week. The subject was deemed a “success” if s/he met one or more of the criteria listed above, otherwise the subject was deemed a “failure”. The primary analysis was based on all subjects with a baseline assessment and an assessment at the end of the “fixed-dose” period and was a comparison of the proportion of successes with 0.10 (the null hypothesis corresponding to no treatment effect).
The proportion of subjects for whom the drug was a success was estimated with a binomial point estimate and corresponding 95% confidence interval. A secondary analysis compared the proportions of subjects who are deemed a success at the end of the randomized fixed-dose period between those randomized to the squalamine (ENT-01) arm and those randomized to the placebo arm. A Fisher's exact test was used to compare the proportions of subjects who were deemed a success at the end of randomization period between the two randomized arms.

[2] = Pharmacokinetics of orally administered squalamine (ENT-01) in Stage 1; assay type: in vivo, human; settings: for AUC0-8 hr / AUC0-16 hr / Tmax (Median Value) / Cmax: Stage 1, oral; for Cmax: squalamine ion, mean
Procedure: Pharmakokinetics: PK data were collected on the 10 patients enrolled in Stage 1 and 10 patients enrolled in Stage 2 to determine the extent of systemic absorption. In Stage 1, PK data were obtained at each visit, pre-medication, at 1, 2, 4, 8 and 24 hours (Table 14). In Stage 2, PK was measured on days 1 and 6 of the randomization period pre-medication, at 1, 2, 4 and 8 hours (Table 15). […] Hao et al. 2003). The mean Cmax, Tmax and T1/2 and AUC of the squalamine ion following squalamine (ENT-01) oral dosing for Stage 1 patients. […] The mean Cmax, Tmax and T1/2 and AUC of the squalamine ion following squalamine (ENT-01) oral dosing for Stage 2 patients. The PK analyses are only approximate, as the lower limit of the validated concentration range was 0.5 ng/ml.

Solubility in water = assay type: physicochemical
[3] = Preclinical oral studies in dogs (bioavailability, tolerability)

## CC(C)[C@@H](CC[C@@H](C)[C@H]1CC[C@H]2[C@@H]3[C@H](O)C[C@H]4C[C@@H](NCCCNCCCCN)CC[C@]4(C)[C@H]3CC[C@]12C)OS(=O)(=O)O (single isomer, unassigned; ent-01) [ENT-01]
[1]; Stage 2
  Median efficacious dose: 100 mg
[1]; Stage 2, Table 12, baseline 1.2 (0.90)
  CSBM, Fixed dose (mean, SD): 3.8
[1]; Stage 2, Table 12, baseline 1.3 (0.45)
  PAQ-SYM, Fixed dose (Mean, SD): 1.1
[1]; Stage 2, Table 12, baseline 1.4 (0.49)
  PAQ-QOL, Fixed dose (Mean, SD): 1.2
[1]; Stage 2, Table 12, baseline 1.8 (1.92)
  Rescue meds, Fixed dose (Mean, SD): 0.3
[1]; Stage 2, Table 12, baseline 2.6 (1.45)
  SBM, Fixed dose (mean, SD): 4.5
[1]; Stage 2, Table 12, baseline 2.7 (1.20)
  Consistency, Fixed dose (mean, SD): 4.1
[1]; Stage 2, Table 12, baseline 3.2 (0.73)
  Ease, Fixed dose (Mean, SD): 3.7
[1]; Stage 2, dosed patients n = 34, baseline 1.3 (0.45)
  PAC-SYM, Fixed dose (mean, SD): 1.1 (0.49)
[1]; Stage 2, dosed patients n = 34, baseline 1.4 (0.49)
  PAC-QOL total, Fixed dose (mean, SD): 1.2 (0.59)
[1]; Stage 2, dosed patients n = 34, weekly average, baseline 1.2 (0.90)
  CSBM, Fixed dose (mean, SD): 3.8 (2.40)
[1]; Stage 2, dosed patients n = 34, weekly average, baseline 1.8 (1.92)
  Suppository use, Fixed dose (mean, SD): 0.3 (0.67)
[1]; Stage 2, dosed patients n = 34, weekly average, baseline 2.6 (1.45)
  SBM, Fixed dose (mean, SD): 4.5 (2.21)
[1]; Stage 2, n = 34, Bristol stool scale 1-7, 1 = separate hard lumps, 7 = liquid consistency, baseline 2.7 (1.20)
  Consistency, Fixed dose (mean, SD): 4.1 (2.13)
[1]; Stage 2, n = 34, Ease of evacuation scale, 1-manual disimpaction, 7 = incontinent, baseline 3.2 (0.73)
  Ease of passage, Fixed dose (mean, SD): 3.7 (1.19)
[1]; Stage 2, wash-out period, baseline 1.2 (0.90)
  CSBM, Wash-out (Mean, SD): 1.8 (1.19)
[1]; Stage 2, wash-out period, baseline 1.3 (0.45)
  PAQ-SYM, Wash-out (Mean, SD): 1.1 (0.60)
[1]; Stage 2, wash-out period, baseline 1.4 (0.49)
  PAQ-QOL, Wash-out (Mean, SD): 1.2 (0.63)
[1]; Stage 2, wash-out period, baseline 1.8 (1.92)
  Rescue meds, Wash-out (Mean, SD): 1.0 (1.40)
[1]; Stage 2, wash-out period, baseline 2.6 (1.45)
  SBM, Wash-out (Mean, SD): 3.2 (1.80)
[1]; Stage 2, wash-out period, baseline 2.7 (1.20)
  Consistency, Wash-out (Mean, SD): 2.8 (1.39)
[1]; Stage 2, wash-out period, baseline 3.2 (0.73)
  Ease, Wash-out (Mean, SD): 3.3 (0.81)
[1]; 75 mg
  response rate: 26%
[1]; 250 mg
  response rate: 85.3%
[1]; at fixed dose, baseline 1.2
  Average CSBM/week: 3.8
[1]; at fixed dose, baseline 1.8/week
  Use of rescue medication: 0.3 /week
[1]; at fixed dose, baseline 2.6
  SBM: 4.5
[1]; beyond the treatment period (wash-out)
  CSBM frequency: remained significantly above baseline value
[1]; during treatment
  Subjective indices of wellbeing (PAC-QOL): improved
  constipation symptoms (PAC-SYM): improved
[1]; patients later randomized to Placebo (n = 9), Fixed dose period on drug, Baseline 1.6
  CSBM/week: 3.3
[1]; patients with baseline constipation of <1 CSBM/week
  dose for a bowel response, mean: 192 mg
[1]; patients with ≥1 CSBM/week at baseline
  dose for a bowel response, mean: 120 mg
[1]; randomized cohort, Treatment (n = 6), Fixed dose, Baseline 0.8
  CSBM/week: 3.2
[1]; randomized cohort, Treatment (n = 6), Randomized period
  CSBM/week: 2.4
[1]; randomized cohort, Treatment (n = 6), Washout
  CSBM/week: 0.9
[1]; treatment, from 2.7
  Consistency based on the Bristol stool scale, mean: 4.1
[1]; treatment, from 3.2
  ease of passage: 3.7
[1]; within 75 mg to 250 mg
  patients responding: 85%
[2]; Stage 1, oral dosing up to 200 mg (114 mg/m^2), compared with prior phase 1 IV pharmacokinetic data
  approximate oral bioavailability: about 0.1%
[2]; dose 25 mg
  AUC0-8 hr: 10.8 ng·h/mL
  AUC0-16 hr: 19.6 ng·h/mL
  Tmax (Median Value): 1.0 h
  Cmax: 2.84 ng/mL
[2]; dose 50 mg
  AUC0-8 hr: 18.5 ng·h/mL
  AUC0-16 hr: 33.1 ng·h/mL
  Tmax (Median Value): 2.0 h
  Cmax: 3.73 ng/mL
[2]; dose 75 mg
  AUC0-8 hr: 18.4 ng·h/mL
  AUC0-16 hr: 29.8 ng·h/mL
  Tmax (Median Value): 2.0 h
  Cmax: 4.33 ng/mL
[2]; dose 100 mg
  AUC0-8 hr: 29.6 ng·h/mL
  AUC0-16 hr: 51.5 ng·h/mL
  Tmax (Median Value): 2.0 h
  Cmax: 6.18 ng/mL
[2]; dose 125 mg
  AUC0-8 hr: 43.1 ng·h/mL
  AUC0-16 hr: 77.7 ng·h/mL
  Tmax (Median Value): 2.0 h
  Cmax: 9.63 ng/mL
[2]; dose 150 mg
  AUC0-8 hr: 31.5 ng·h/mL
  AUC0-16 hr: 64.0 ng·h/mL
  Tmax (Median Value): 2.0 h
  Cmax: 6.27 ng/mL
[2]; dose 175 mg
  AUC0-8 hr: 49.7 ng·h/mL
  AUC0-16 hr: 91.2 ng·h/mL
  Tmax (Median Value): 2.0 h
  Cmax: 10.3 ng/mL
[2]; dose 200 mg
  AUC0-8 hr: 78.3 ng·h/mL
  AUC0-16 hr: 157 ng·h/mL
  Tmax (Median Value): 2.0 h
  Cmax: 15.1 ng/mL
[2]; estimated from PK of intravenously administered squalamine in prior clinical studies
  oral bio-availability: less than 0.3%
Solubility in water; neutral pH
  solubility in water: weakly soluble
Solubility in water; pH<3.5 (the pH of gastric fluid)
  solubility in water: readily dissolves
[3]
  tolerability: well tolerated
[3]; preclinical studies
  oral bioavailability: about 0.1%
